{"source": "patent US20020018806A1", "about": "“Lipopeptide adjuvants” (priority 2000, published 2002)", "tested_on": "peripheral blood mononuclear cells", "assay": "T-cell promiscuity in unimmunized humans: PBMC proliferation with lipopeptide (3H-thymidine incorporation)", "assay_type": "cell-based, human", "settings": "PBMC 3×10^5/well, 5-6 days with lipopeptide, responder = ≧2 S.I. (cpm with antigen/cpm media only)", "data": [{"substance": "Tetanus toxoid", "values": [{"measurement": "Responder/Total", "value": "10/21"}]}]}
